This note sets out measurements from ChEMBL document CHEMBL1154627, “Structure-activity relationship studies of targeting ligands against breast cancer cells” (J Med Chem, 2009).

Where a SMILES comes first, the peptide text is derived from it. Bridges are numbered along the chain shown (N, C = ends). [ ]: non-standard residue; d: D form. Tyr(3-NO2) = N[C@@H](Cc1ccc(O)c([N+](=O)[O-])c1)C(=O)O; Hyp = O=C(O)[C@@H]1C[C@@H](O)CN1

By IC50 is commonly meant the point on the concentration scale where inhibition reaches its midpoint.

The nature of the assay: Binding affinity to alpha3beta1 integrin receptor in human MDA-MB-231 cells assessed as inhibition of cell binding to immobilized LXY1 peptide by cell adherence assay. It is filed as cell-based.
Regarding `NC(=O)C[C@@H]1NC(=O)[C@@H]2C[C@@H](O)CN2C(=O)CNC(=O)[C@H](Cc2ccc(O)c([N+](=O)[O-])c2)NC(=O)CNC(=O)[C@@H](CC(=O)O)NC(=O)[C@H](NC(=O)Nc2ccccc2)CSSC[C@H](C(N)=O)NC1=O`, the IC50 was above 25 µM.
For the compound `NC(=O)C[C@@H]1NC(=O)[C@@H]2C[C@@H](O)CN2C(=O)CNC(=O)[C@H](Cc2ccc(O)c([N+](=O)[O-])c2)NC(=O)CNC(=O)[C@@H](CC(=O)O)NC(=O)[C@H](NCc2ccc(-c3ccccc3)cc2)CSSC[C@H](C(N)=O)NC1=O`, the IC50 is above 25 µM.
With `NCC[C@@H]1NC(=O)[C@@H]2C[C@@H](O)CN2C(=O)CNC(=O)[C@H](Cc2ccc(O)c([N+](=O)[O-])c2)NC(=O)CNC(=O)[C@@H](CC(=O)O)NC(=O)[C@H](N)CSSC[C@H](C(N)=O)NC1=O`, the IC50 was found to be 13.6 µM.
With `NC(=O)C[C@@H]1NC(=O)[C@@H]2C[C@@H](O)CN2C(=O)CNC(=O)[C@@H]2CCCCN2C(=O)CNC(=O)[C@@H](CC(=O)O)NC(=O)[C@H](N)CSSC[C@H](C(N)=O)NC1=O` the figure was 24.1 µM; with `NC(=O)C[C@@H]1NC(=O)[C@@H]2C[C@@H](O)CN2C(=O)CNC(=O)[C@H](Cc2ccc(O)c([N+](=O)[O-])c2)NC(=O)CNC(=O)[C@@H](CC(=O)O)NC(=O)[C@H](NCc2ccc(F)c(F)c2)CSSC[C@H](C(N)=O)NC1=O`, above 25 µM; with `NC(=O)C[C@@H]1NC(=O)[C@@H]2C[C@@H](O)CN2C(=O)CNC(=O)[C@H](c2c(F)c(F)c(F)c(F)c2F)NC(=O)CNC(=O)[C@@H](CC(=O)O)NC(=O)[C@H](N)CSSC[C@H](C(N)=O)NC1=O`, 11.7 µM.
With `NC(=O)C[C@@H]1NC(=O)[C@@H]2C[C@@H](O)CN2C(=O)CNC(=O)[C@H](Cc2ccc(O)c([N+](=O)[O-])c2)NC(=O)CNC(=O)[C@@H](CC(=O)O)NC(=O)[C@H](N)CNC(=O)C[C@H](C(N)=O)NC1=O`, the IC50 is above 25 µM.
To `COc1ccc(NC(=O)N[C@@H]2CSSC[C@H](C(N)=O)NC(=O)[C@H](CC(N)=O)NC(=O)[C@@H]3C[C@@H](O)CN3C(=O)CNC(=O)[C@H](Cc3ccc(O)c([N+](=O)[O-])c3)NC(=O)CNC(=O)[C@@H](CC(=O)O)NC2=O)cc1OC` belongs above 25 µM; to `NC(=O)C[C@@H]1NC(=O)[C@@H]2C[C@@H](O)CN2C(=O)CNC(=O)[C@H](CCc2ccc(O)cc2)NC(=O)CNC(=O)[C@@H](CC(=O)O)NC(=O)[C@H](N)CSSC[C@H](C(N)=O)NC1=O`, above 25 µM; to `NC(=O)C[C@@H]1NC(=O)[C@@H]2C[C@@H](O)CN2C(=O)CNC(=O)[C@H](Cc2ccc(O)c([N+](=O)[O-])c2)NC(=O)CNC(=O)[C@@H](CC(=O)O)NC(=O)[C@H](NC(=O)Nc2ccc([N+](=O)[O-])cc2)CSSC[C@H](C(N)=O)NC1=O`, above 25 µM.
With `NC(=O)C[C@@H]1NC(=O)[C@@H]2C[C@@H](O)CN2C(=O)CNC(=O)[C@@H]2CCCN2C(=O)CNC(=O)[C@@H](CC(=O)O)NC(=O)[C@H](N)CSSC[C@H](C(N)=O)NC1=O` the figure was 16.9 µM.
On to `NC(=O)C[C@@H]1NC(=O)[C@@H]2C[C@@H](O)CN2C(=O)CNC(=O)[C@H](Cc2ccc(O)c([N+](=O)[O-])c2)NC(=O)CNC(=O)[C@@H](CC(=O)O)NC(=O)[C@H](NCc2cccc([N+](=O)[O-])c2)CSSC[C@H](C(N)=O)NC1=O`, for which the concentration for half-maximal inhibition (IC50) was above 25 µM.
As for `NC(=O)C[C@@H]1NC(=O)[C@@H]2C[C@@H](O)CN2C(=O)CNC(=O)[C@H](c2ccc(F)cc2)NC(=O)CNC(=O)[C@@H](CC(=O)O)NC(=O)[C@H](N)CSSC[C@H](C(N)=O)NC1=O`, the 50% inhibitory concentration (IC50) came to 23.7 µM.
With `NC(=O)C[C@@H]1NC(=O)[C@@H]2C[C@@H](O)CN2C(=O)CNC(=O)[C@H](Cc2cc(Br)c(O)c(Br)c2)NC(=O)CNC(=O)[C@@H](CC(=O)O)NC(=O)[C@H](N)CSSC[C@H](C(N)=O)NC1=O` the figure was above 25 µM.
With `NC(=O)C[C@@H]1NC(=O)[C@@H]2C[C@@H](O)CN2C(=O)CNC(=O)[C@H](c2ccccc2[N+](=O)[O-])NC(=O)CNC(=O)[C@@H](CC(=O)O)NC(=O)[C@H](N)CSSC[C@H](C(N)=O)NC1=O` the figure was 19.6 µM; with `NC(=O)C[C@@H]1NC(=O)[C@@H]2C[C@@H](O)CN2C(=O)CNC(=O)[C@H](Cc2ccc(O)c([N+](=O)[O-])c2)NC(=O)CNC(=O)[C@@H](CC(=O)O)NC(=O)[C@@H](N)CCCCNC1=O`, above 25 µM; with `COC(=O)c1ccc(NC(=O)N[C@@H]2CSSC[C@H](C(N)=O)NC(=O)[C@H](CC(N)=O)NC(=O)[C@@H]3C[C@@H](O)CN3C(=O)CNC(=O)[C@H](Cc3ccc(O)c([N+](=O)[O-])c3)NC(=O)CNC(=O)[C@@H](CC(=O)O)NC2=O)cc1`, above 25 µM.
With `NC(=O)C[C@@H]1NC(=O)[C@@H]2C[C@@H](O)CN2C(=O)CNC(=O)[C@H](Cc2ccc(O)c([N+](=O)[O-])c2)NC(=O)CNC(=O)[C@@H](CC(=O)O)NC(=O)[C@H](NC(=O)Nc2ccc(Cl)cc2)CSSC[C@H](C(N)=O)NC1=O` the figure was above 25 µM; with `NC(=O)C[C@@H]1NC(=O)[C@@H]2C[C@@H](O)CN2C(=O)CNC(=O)[C@@H]2SCCN2C(=O)CNC(=O)[C@@H](CC(=O)O)NC(=O)[C@H](N)CSSC[C@H](C(N)=O)NC1=O`, 10.5 µM.
For `NC(=O)C[C@@H]1NC(=O)[C@@H]2C[C@@H](O)CN2C(=O)CNC(=O)[C@H](Cc2ccc(O)c([N+](=O)[O-])c2)NC(=O)CNC(=O)[C@@H](CC(=O)O)NC(=O)[C@H](NCc2cccnc2)CSSC[C@H](C(N)=O)NC1=O`, the IC50 is above 25 µM.
To `NC(=O)C[C@@H]1NC(=O)[C@@H]2C[C@@H](O)CN2C(=O)CNC(=O)[C@H](c2cccc(F)c2)NC(=O)CNC(=O)[C@@H](CC(=O)O)NC(=O)[C@H](N)CSSC[C@H](C(N)=O)NC1=O` belongs 11.3 µM.
As for `NC(=O)C[C@@H]1NC(=O)[C@@H]2C[C@@H](O)CN2C(=O)CNC(=O)[C@H](Cc2ccc(O)c([N+](=O)[O-])c2)NC(=O)CNC(=O)[C@@H](CC(=O)O)NC(=O)[C@H](N)CSSC[C@H](C(N)=O)NC1=O` (H-[dC][dD]G[Tyr(3-NO2)]G[Hyp]N[dC]-NH2; disulfide 1-8), the IC50 amounted to 7.4 µM.
Consider `NC(=O)C[C@@H]1NC(=O)[C@@H]2C[C@@H](O)CN2C(=O)CNC(=O)[C@H](Cc2ccc(O)c(N)c2)NC(=O)CNC(=O)[C@@H](CC(=O)O)NC(=O)[C@H](N)CSSC[C@H](C(N)=O)NC1=O`, for which the IC50 is above 25 µM.
In the case of `NC(=O)C[C@@H]1NC(=O)[C@@H]2C[C@@H](O)CN2C(=O)CNC(=O)[C@H](Cc2ccc(O)c([N+](=O)[O-])c2)NC(=O)CNC(=O)[C@@H](CC(=O)O)NC(=O)[C@H](NC(=O)NC2CCCCC2)CSSC[C@H](C(N)=O)NC1=O`, the IC50 was above 25 µM.
Take `NC(=O)C[C@@H]1NC(=O)[C@@H]2C[C@@H](O)CN2C(=O)CNC(=O)[C@H](c2ccc(C(F)(F)F)cc2)NC(=O)CNC(=O)[C@@H](CC(=O)O)NC(=O)[C@H](N)CSSC[C@H](C(N)=O)NC1=O`: the IC50 is above 25 µM.
With `NC(=O)C[C@@H]1NC(=O)[C@@H]2C[C@@H](O)CN2C(=O)CNC(=O)[C@H](Cc2ccc(O)c([N+](=O)[O-])c2)NC(=O)CNC(=O)[C@@H](CC(=O)O)NC(=O)[C@H](N)C/C=C/C[C@H](C(N)=O)NC1=O` the figure was above 25 µM; with `N#Cc1cccc([C@@H]2NC(=O)CNC(=O)[C@@H](CC(=O)O)NC(=O)[C@H](N)CSSC[C@H](C(N)=O)NC(=O)[C@H](CC(N)=O)NC(=O)[C@@H]3C[C@@H](O)CN3C(=O)CNC2=O)c1`, above 25 µM; with `NC(=O)C[C@@H]1NC(=O)[C@@H]2C[C@@H](O)CN2C(=O)CNC(=O)[C@@H]2C[C@@H](F)CN2C(=O)CNC(=O)[C@@H](CC(=O)O)NC(=O)[C@H](N)CSSC[C@H](C(N)=O)NC1=O`, 18.5 µM.
To `NC(=O)C[C@@H]1NC(=O)[C@@H]2C[C@@H](O)CN2C(=O)CNC(=O)[C@H](Cc2ccc(O)c(Cl)c2)NC(=O)CNC(=O)[C@@H](CC(=O)O)NC(=O)[C@H](N)CSSC[C@H](C(N)=O)NC1=O` belongs 19.8 µM; to `NC(=O)C[C@@H]1NC(=O)[C@@H]2C[C@@H](O)CN2C(=O)CNC(=O)[C@H](Cc2ccc(O)c([N+](=O)[O-])c2)NC(=O)CNC(=O)[C@@H](CC(=O)O)NC(=O)[C@H](NC(=O)CCc2ccccc2)CSSC[C@H](C(N)=O)NC1=O`, above 25 µM; to `CC(C)NC(=O)N[C@@H]1CSSC[C@H](C(N)=O)NC(=O)[C@H](CC(N)=O)NC(=O)[C@@H]2C[C@@H](O)CN2C(=O)CNC(=O)[C@H](Cc2ccc(O)c([N+](=O)[O-])c2)NC(=O)CNC(=O)[C@@H](CC(=O)O)NC1=O`, above 25 µM.
As to `NC(=O)C[C@@H]1NC(=O)[C@@H]2C[C@@H](O)CN2C(=O)CNC(=O)[C@H](Cc2cc([N+](=O)[O-])c(O)c([N+](=O)[O-])c2)NC(=O)CNC(=O)[C@@H](CC(=O)O)NC(=O)[C@H](N)CSSC[C@H](C(N)=O)NC1=O`, the IC50 is 11.9 µM.
To `CC(C)CN[C@@H]1CSSC[C@H](C(N)=O)NC(=O)[C@H](CC(N)=O)NC(=O)[C@@H]2C[C@@H](O)CN2C(=O)CNC(=O)[C@H](Cc2ccc(O)c([N+](=O)[O-])c2)NC(=O)CNC(=O)[C@@H](CC(=O)O)NC1=O` belongs above 25 µM; to `NC(=O)[C@H]1CSSC[C@@H](N)C(=O)N[C@H](CC(=O)O)C(=O)NCC(=O)N[C@@H](Cc2ccc(O)c([N+](=O)[O-])c2)C(=O)NCC(=O)N2C[C@H](O)C[C@H]2C(=O)N[C@@H](CC(=O)O)C(=O)N1`, 17.1 µM.
In the case of `NC(=O)C[C@@H]1NC(=O)[C@@H]2C[C@@H](O)CN2C(=O)CNC(=O)[C@H](c2ccccc2Cl)NC(=O)CNC(=O)[C@@H](CC(=O)O)NC(=O)[C@H](N)CSSC[C@H](C(N)=O)NC1=O`, the IC50 is 19 µM.
To `NC(=O)C[C@@H]1NC(=O)[C@@H]2C[C@@H](O)CN2C(=O)CNC(=O)[C@H](c2cc(F)c(F)c(F)c2)NC(=O)CNC(=O)[C@@H](CC(=O)O)NC(=O)[C@H](N)CSSC[C@H](C(N)=O)NC1=O` belongs 5.9 µM; to `NC(=O)C[C@@H]1NC(=O)[C@@H]2C[C@@H](O)CN2C(=O)CNC(=O)[C@@H]2CCN2C(=O)CNC(=O)[C@@H](CC(=O)O)NC(=O)[C@H](N)CSSC[C@H](C(N)=O)NC1=O`, 21.4 µM.
To `NC(=O)C[C@@H]1NC(=O)[C@@H]2C[C@@H](O)CN2C(=O)CNC(=O)[C@H](c2cccc([N+](=O)[O-])c2)NC(=O)CNC(=O)[C@@H](CC(=O)O)NC(=O)[C@H](N)CSSC[C@H](C(N)=O)NC1=O` belongs 3.1 µM.
